Data published in patent publication US9890117B2, “Benzamide compounds and related methods of use” (Northwestern University, priority 2012, dated 2018).
pEC50: −log10 of the molar value. Values belong to the compound of their own block, whether it stands above or below them.

Key:
[1] = cited from earlier work
[2] = tested on: α-tubulin K40 acetylation (SIRT2 substrate) in N2a cells; assay: α-tubulin K40 acetylation (Western) in neuronal N2a cells; assay type: cell-based; settings: N2a cells, 10, 25, 50 μM, 6 h
Description: FIGS. 2A-B. Cell-based assay for evaluating the bioactivity of SIRT2 inhibitors. A) Extracts from neuronal N2a cells treated with 61 and 64 for 6 h were resolved on SDS-PAGE and analyzed by Western analysis using antibodies specific to acetylated α-tubulin, and normalized to GADPH and total α-tubulin (not shown) levels.
(§1) To assess SIRT2 inhibition activity in cells, an increase in α-tubulin K40 acetylation (α-tubulin is a substrate for SIRT2) in neuronal N2a and in wild type and HD ST141 cell lines was measured. In this bioactivity test, extracts from compound-treated cells were resolved on SDS-PAGE and subjected to Western analysis using primary antibodies specific to K40 acetylated α-tubulin. Trichostatin A (TSA), a potent HDAC inhibitor, was used as a positive control. To normalize the levels of acetylated α-tubulin we used total α-tubulin and GADPH proteins, detected by Western reactive antibodies specific to total α-tubulin and GADPH. […] FIGS. 2A-B show the bioactivity of 61 and 64 in N2a cells at three tested concentrations (10, 25, and 50 μM). Toxicity of the compounds was monitored in both cell lines, and most of them were non-toxic up to 50 μM in a 6 h treatment.

[3] = Microsomal stability screen, human; settings: 1 μM
[4] = Microsomal stability screen, mouse; settings: 1 μM
N2a cells = assay: Toxicity monitoring in N2a cells; assay type: cell-based
Description: as §1

WT st14a cells = assay: Toxicity monitoring in WT st14a cells; assay type: cell-based; settings: up to 18 h treatment
SIRT2 = molecular target: T1, SIRT2 (Homo sapiens, UniProt Q8IXJ6); assay: Fluor-de-Lys biochemical sirtuin deacetylation assay, SIRT2; settings: dose-response, five doses, side-by-side with AK-1
T1 construct: recombinant active enzymes SIRT1, SIRT2, and the catalytically active fragment of SIRT3
T1 sequence (Q8IXJ6 1-389): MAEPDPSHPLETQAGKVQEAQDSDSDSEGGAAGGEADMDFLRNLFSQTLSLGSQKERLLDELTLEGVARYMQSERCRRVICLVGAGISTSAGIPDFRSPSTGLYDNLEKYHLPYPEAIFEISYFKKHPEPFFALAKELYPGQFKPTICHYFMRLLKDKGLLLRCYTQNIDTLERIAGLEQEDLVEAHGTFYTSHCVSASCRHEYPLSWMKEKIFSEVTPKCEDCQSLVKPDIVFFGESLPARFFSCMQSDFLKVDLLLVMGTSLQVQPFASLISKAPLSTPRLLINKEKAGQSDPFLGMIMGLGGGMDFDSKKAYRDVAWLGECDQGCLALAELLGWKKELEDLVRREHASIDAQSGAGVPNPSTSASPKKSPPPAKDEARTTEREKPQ

SIRT1 = molecular target: T2, SIRT1 (Homo sapiens, UniProt Q96EB6); assay: Fluor-de-Lys biochemical sirtuin deacetylation assay, SIRT1 counter-screen; settings: 10 μM counter-screen
T2 sequence (Q96EB6 1-747): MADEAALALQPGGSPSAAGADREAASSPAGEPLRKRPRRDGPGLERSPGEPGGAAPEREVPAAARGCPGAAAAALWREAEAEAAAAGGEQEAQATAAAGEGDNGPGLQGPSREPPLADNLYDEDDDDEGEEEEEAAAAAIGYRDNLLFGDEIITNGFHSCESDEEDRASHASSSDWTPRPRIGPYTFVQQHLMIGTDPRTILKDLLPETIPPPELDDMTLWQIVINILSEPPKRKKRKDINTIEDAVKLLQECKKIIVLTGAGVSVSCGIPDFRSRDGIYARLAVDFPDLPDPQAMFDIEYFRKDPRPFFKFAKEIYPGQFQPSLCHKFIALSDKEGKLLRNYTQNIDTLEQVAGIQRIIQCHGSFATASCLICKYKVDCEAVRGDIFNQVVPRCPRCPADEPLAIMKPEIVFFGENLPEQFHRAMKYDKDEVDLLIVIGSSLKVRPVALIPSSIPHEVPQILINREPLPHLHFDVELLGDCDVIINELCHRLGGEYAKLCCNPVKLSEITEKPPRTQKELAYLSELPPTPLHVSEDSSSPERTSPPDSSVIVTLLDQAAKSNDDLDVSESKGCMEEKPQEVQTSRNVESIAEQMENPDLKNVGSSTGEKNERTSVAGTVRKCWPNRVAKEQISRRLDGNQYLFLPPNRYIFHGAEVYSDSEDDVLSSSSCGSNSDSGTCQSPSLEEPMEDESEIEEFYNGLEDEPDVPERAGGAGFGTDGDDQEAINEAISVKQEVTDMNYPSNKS
Description: To evaluate the potency and selectivity of the synthesized compounds robust, sensitive, and quantitative, biochemical sirtuin deacetylation assays were employed. (SIRT2 then SIRT1 and SIRT3 for selectivity). Sirtuin activity was assessed using the Fluor-de-Lys assay with recombinant active enzymes SIRT1, SIRT2, and the catalytically active fragment of SIRT3, as described in the literature. […] AK-1 was included as the reference compound with each assay. […] Those compounds also were subjected to SIRT1 and SIRT3 assays to determine sirtuin selectivity.
As discussed above, Tables 1-10 are presented and followed by details relating to the synthesis and characterization of compounds prepared. Inhibition assays and related testing of such compounds are conducted according to well-known literature protocols including those found in Silverman, et al., Biorg. Med. Chem. Lett. 22 (2012) 2789-2793 and the references cited therein, such references and tests incorporated herein by reference.

[5] = tested on: α-tubulin K40 acetylation (SIRT2 substrate) in wild type and HD ST141 cell lines; assay: α-tubulin K40 acetylation (Western) in wild type and HD ST141 cell lines; assay type: cell-based
Description: as §1

polyQ aggregation = settings: cell-based model; read-out: suppression of aggregation, EC50; cited from earlier work
[6] = tested on: huntingtin (htt) aggregation; settings: R6/2 mice; cited from earlier work
htt aggregation = settings: 140 CAG knock-in model of HD; cited from earlier work
[7] = in vivo; cited from earlier work

Compound: O=C(Nc1cccc([N+](=O)[O-])c1)c1cccc(S(=O)(=O)N2CCCCCC2)c1 [AK-1]
aqueous solubility [1]: low aqueous solubility

Compound: O=C(Nc1cccc(Br)c1)c1cccc(S(=O)(=O)N2CCCCCC2)c1 [AK-7]
aqueous solubility [1]: low aqueous solubility

Mean remaining parent NADPH-free (%) [3]: 112%
Mean remaining parent with NADPH (%) [3]: 2%
Mean remaining parent NADPH-free (%) [4]: 100%
Mean remaining parent with NADPH (%) [4]: 4%
Compound: CN(c1ccc(Cl)cc1)S(=O)(=O)c1cccc(C(=O)Nc2ccc(S(C)(=O)=O)cc2)c1 [Compound 61, 3-(N-(4-Chlorophenyl)-N-methylsulfamoyl)-N-(4-(methylsulfonyl)phenyl)benzamide]
increase in α-tubulin K40 acetylation [2]: dose-dependent increase

Compound: CN(c1ccc(Cl)cc1)S(=O)(=O)c1cccc(C(=O)Nc2ccc(C#N)cc2)c1 [Compound 64, 3-(N-(4-Chlorophenyl)-N-methylsulfamoyl)-N-(4-cyanophenyl)benzamide]
increase in α-tubulin K40 acetylation [2]: dose-dependent increase

Mean remaining parent NADPH-free (%) [3]: 106%
Mean remaining parent with NADPH (%) [3]: 2%
Mean remaining parent NADPH-free (%) [4]: 90%
Mean remaining parent with NADPH (%) [4]: 2%
Compound: COc1ccc(N(C)S(=O)(=O)c2cccc(C(=O)Nc3ccc(C#N)cc3)c2)cc1 [Compound 90, N-(4-Cyanophenyl)-3-(N-(4-methoxyphenyl)-N-methylsulfamoyl)benzamide]
toxicity (N2a cells; 25 μM): partially toxic
toxicity (N2a cells; 50 μM): toxic
toxicity (WT st14a cells): no toxicity was observed

SIRT2 inhibition potency compared with AK-1 (SIRT2): significantly more potent
SIRT1 inhibition (SIRT1): minimal SIRT1 inhibition
Compound: CN(c1ccc(S(C)(=O)=O)cc1)S(=O)(=O)c1cccc(C(=O)Nc2ccc(C#N)cc2)c1 [Compound 115, N-(4-Cyanophenyl)-3-(N-methyl-N-(4-(methylsulfonyl)phenyl)sulfamoyl)benzamide]
increase in α-tubulin K40 acetylation [2]: did not show any significant increase
increase in α-tubulin K40 acetylation [5]: did not show any significant increase

Compound: O=C(Nc1ccc(Br)cc1)c1cccc(S(=O)(=O)Nc2ccc(Br)cc2)c1 [Compound C2-8]
pEC50 (polyQ aggregation): 7.30
inhibition of huntingtin (htt) aggregation in the striatum [6]: 25-30%
reduction of htt aggregation (htt aggregation): 50%
toxicity in acute and chronic tolerability studies [7]: not toxic
aqueous solubility [1]: low aqueous solubility
